Tested on: MCH receptors
Assay: MCH receptor activity class (method not given)
Details: MCH receptor activity class 1-3 (percent of control at 10^-7 M or IC50)

SMILES | class
COc1cccc(CNC(=S)N[C@H]2CC[C@@H](Nc3nccc(N(C)C)n3)CC2)c1OC [compound 2333] | 3 (Class 3 The value of percent of control at 10^−7 M was more than 60% or the value of IC50 was more than 200 nM.)
Cc1cc(C)c(NC(=S)N[C@H]2CC[C@@H](Nc3nccc(N(C)C)n3)CC2)cc1C [compound 2334] | 3 (Class 3 The value of percent of control at 10^−7 M was more than 60% or the value of IC50 was more than 200 nM.)
CN(C)c1ccnc(N[C@H]2CC[C@@H](NC(=S)Nc3ccccc3-c3ccccc3)CC2)n1 [compound 2335] | 3 (Class 3 The value of percent of control at 10^−7 M was more than 60% or the value of IC50 was more than 200 nM.)
Cc1cc([N+](=O)[O-])ccc1NC(=S)N[C@H]1CC[C@@H](Nc2nccc(N(C)C)n2)CC1 [compound 2336] | 3 (Class 3 The value of percent of control at 10^−7 M was more than 60% or the value of IC50 was more than 200 nM.)
CN(C)c1ccnc(N[C@H]2CC[C@@H](NC(=S)NCc3cccc(Cl)c3)CC2)n1 [compound 2337] | 3 (Class 3 The value of percent of control at 10^−7 M was more than 60% or the value of IC50 was more than 200 nM.)
CCOC(=O)c1cccc(NC(=S)N[C@H]2CC[C@@H](Nc3nccc(N(C)C)n3)CC2)c1 [compound 2338] | 3 (Class 3 The value of percent of control at 10^−7 M was more than 60% or the value of IC50 was more than 200 nM.)
CN(C)c1ccnc(N[C@H]2CC[C@@H](NC(=S)Nc3ccc(Cl)cc3C(F)(F)F)CC2)n1 [compound 2339] | 3 (Class 3 The value of percent of control at 10^−7 M was more than 60% or the value of IC50 was more than 200 nM.)
Cc1cc(F)ccc1NC(=S)N[C@H]1CC[C@@H](Nc2nccc(N(C)C)n2)CC1 [compound 2340] | 3 (Class 3 The value of percent of control at 10^−7 M was more than 60% or the value of IC50 was more than 200 nM.)
COc1ccc(NC(=S)N[C@H]2CC[C@@H](Nc3nccc(N(C)C)n3)CC2)c(C)c1 [compound 2341] | 3 (Class 3 The value of percent of control at 10^−7 M was more than 60% or the value of IC50 was more than 200 nM.)
COc1cc(OC)c(NC(=S)N[C@H]2CC[C@@H](Nc3nccc(N(C)C)n3)CC2)cc1Cl [compound 2342] | 1 (Class 1: The value of percent of control at 10^−7 M was less than 40% or the value of IC50 was less than 50 nM.)
C[C@@H](NC(=S)N[C@H]1CC[C@@H](Nc2nccc(N(C)C)n2)CC1)c1ccccc1 [compound 2343] | 3 (Class 3 The value of percent of control at 10^−7 M was more than 60% or the value of IC50 was more than 200 nM.)
Cc1cccc(NC(=S)N[C@H]2CC[C@@H](Nc3nccc(N(C)C)n3)CC2)c1C [compound 2344] | 3 (Class 3 The value of percent of control at 10^−7 M was more than 60% or the value of IC50 was more than 200 nM.)
CN(C)c1ccnc(N[C@H]2CC[C@@H](NC(=S)Nc3c(F)cc(Br)cc3Br)CC2)n1 [compound 2345] | 2 (Class 2: The value of percent of control at 10^−7 M was from 40% to 60% or the value of IC′50 was from 50 nM to 200 nM.)
Cc1cc(Cl)cc(Cl)c1NC(=S)N[C@H]1CC[C@@H](Nc2nccc(N(C)C)n2)CC1 [compound 2346, N-(2,4-dichloro-6-methylphenyl)-N′-(cis-4-{[4-(dimethylamino)pyrimidin-2-yl]amino}cyclohexyl)thiourea] | 2 (Class 2: The value of percent of control at 10^−7 M was from 40% to 60% or the value of IC′50 was from 50 nM to 200 nM.)
CCOc1ccccc1NC(=S)N[C@H]1CC[C@@H](Nc2nccc(N(C)C)n2)CC1 [compound 2347] | 3 (Class 3 The value of percent of control at 10^−7 M was more than 60% or the value of IC50 was more than 200 nM.)
Cc1cccc(C(C)C)c1NC(=S)N[C@H]1CC[C@@H](Nc2nccc(N(C)C)n2)CC1 [compound 2348] | 3 (Class 3 The value of percent of control at 10^−7 M was more than 60% or the value of IC50 was more than 200 nM.)
CN(C)c1ccnc(N[C@H]2CC[C@@H](NC(=S)Nc3ccc4c(c3)OCCO4)CC2)n1 [compound 2349] | 3 (Class 3 The value of percent of control at 10^−7 M was more than 60% or the value of IC50 was more than 200 nM.)

From patent US20050197350A1, “Novel quinoline, tetrahydroquinazoline, and pyrimidine derivatives and methods of treatment related to the use thereof” (TAISHO PHARMACEUTICAL CO., LTD., priority 2003, published 2005)
